ChEMBL document CHEMBL1135518 (J Med Chem, 2002)

How the values were obtained:
[1] = molecular target: 5-hydroxytryptamine receptor 2A (Rattus norvegicus, UniProt P14842); assay: The binding affinity at 5-hydroxytryptamine 2A receptor was determined using [3H]ketanserin
[2] = molecular target: T1, Adrenergic receptor alpha-2 (Rattus norvegicus, UniProt P22086+P19328+P22909); assay: The binding affinity at the Alpha-2 adrenergic receptor determined using [3H]RX-821002; Not tested; format: protein assay
T1 sequence (P22086 whole entry): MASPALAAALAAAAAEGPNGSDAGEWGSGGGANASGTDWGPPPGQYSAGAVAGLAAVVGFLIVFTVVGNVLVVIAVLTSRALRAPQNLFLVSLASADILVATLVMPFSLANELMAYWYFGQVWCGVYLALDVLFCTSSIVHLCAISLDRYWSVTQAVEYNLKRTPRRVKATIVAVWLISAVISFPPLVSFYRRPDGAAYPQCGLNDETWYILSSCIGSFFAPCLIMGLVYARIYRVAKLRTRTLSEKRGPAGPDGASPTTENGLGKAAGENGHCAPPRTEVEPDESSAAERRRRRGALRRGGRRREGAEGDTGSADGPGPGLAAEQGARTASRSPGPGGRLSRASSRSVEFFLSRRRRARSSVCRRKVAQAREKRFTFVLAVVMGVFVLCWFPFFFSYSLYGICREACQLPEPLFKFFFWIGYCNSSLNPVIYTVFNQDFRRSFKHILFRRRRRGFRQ
T1 sequence (P19328 whole entry): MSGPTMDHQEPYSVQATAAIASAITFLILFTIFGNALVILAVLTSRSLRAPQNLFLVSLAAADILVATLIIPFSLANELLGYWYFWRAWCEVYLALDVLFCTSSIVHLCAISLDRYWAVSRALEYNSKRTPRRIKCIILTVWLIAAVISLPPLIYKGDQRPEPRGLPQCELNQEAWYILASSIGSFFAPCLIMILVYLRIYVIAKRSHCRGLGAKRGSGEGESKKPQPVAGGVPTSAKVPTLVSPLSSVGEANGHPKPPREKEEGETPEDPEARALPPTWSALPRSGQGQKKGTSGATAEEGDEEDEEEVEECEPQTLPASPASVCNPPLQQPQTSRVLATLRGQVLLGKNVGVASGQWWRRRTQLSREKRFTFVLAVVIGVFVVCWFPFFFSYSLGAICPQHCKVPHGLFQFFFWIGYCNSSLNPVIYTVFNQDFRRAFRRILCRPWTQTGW
T1 sequence (P22909 whole entry): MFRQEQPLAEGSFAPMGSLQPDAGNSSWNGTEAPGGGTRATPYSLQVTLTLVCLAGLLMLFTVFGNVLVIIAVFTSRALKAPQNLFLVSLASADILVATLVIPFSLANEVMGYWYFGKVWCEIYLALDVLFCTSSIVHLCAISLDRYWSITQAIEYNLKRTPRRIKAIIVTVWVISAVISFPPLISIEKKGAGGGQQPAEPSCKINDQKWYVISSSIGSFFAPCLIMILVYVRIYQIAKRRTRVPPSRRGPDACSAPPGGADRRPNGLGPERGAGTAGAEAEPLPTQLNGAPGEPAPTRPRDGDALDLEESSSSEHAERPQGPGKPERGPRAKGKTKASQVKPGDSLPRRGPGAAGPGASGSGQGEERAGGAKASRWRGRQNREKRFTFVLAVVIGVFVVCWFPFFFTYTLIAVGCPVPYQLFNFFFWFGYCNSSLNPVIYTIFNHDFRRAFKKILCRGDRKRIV

[3] = molecular target: T2, Adrenergic receptor alpha-1 (Rattus norvegicus, UniProt P15823+P23944+P43140); assay: The binding affinity at Alpha-1 adrenergic receptor determined using [3H]prazosin; format: protein assay
T2 sequence (P15823 whole entry): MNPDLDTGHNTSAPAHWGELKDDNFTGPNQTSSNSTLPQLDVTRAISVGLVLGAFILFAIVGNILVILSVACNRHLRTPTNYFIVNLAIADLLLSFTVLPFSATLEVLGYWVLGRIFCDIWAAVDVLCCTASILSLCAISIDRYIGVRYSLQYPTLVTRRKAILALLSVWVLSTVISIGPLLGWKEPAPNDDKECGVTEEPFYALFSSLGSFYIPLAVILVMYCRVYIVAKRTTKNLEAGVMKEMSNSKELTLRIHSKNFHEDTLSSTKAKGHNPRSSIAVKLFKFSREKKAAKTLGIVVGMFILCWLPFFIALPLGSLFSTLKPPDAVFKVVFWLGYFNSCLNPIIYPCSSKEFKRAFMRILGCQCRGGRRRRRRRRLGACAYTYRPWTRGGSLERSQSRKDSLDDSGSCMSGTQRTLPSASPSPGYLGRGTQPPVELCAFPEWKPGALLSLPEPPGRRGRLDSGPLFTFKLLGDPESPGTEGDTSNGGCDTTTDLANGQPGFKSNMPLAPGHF
T2 sequence (P23944 whole entry): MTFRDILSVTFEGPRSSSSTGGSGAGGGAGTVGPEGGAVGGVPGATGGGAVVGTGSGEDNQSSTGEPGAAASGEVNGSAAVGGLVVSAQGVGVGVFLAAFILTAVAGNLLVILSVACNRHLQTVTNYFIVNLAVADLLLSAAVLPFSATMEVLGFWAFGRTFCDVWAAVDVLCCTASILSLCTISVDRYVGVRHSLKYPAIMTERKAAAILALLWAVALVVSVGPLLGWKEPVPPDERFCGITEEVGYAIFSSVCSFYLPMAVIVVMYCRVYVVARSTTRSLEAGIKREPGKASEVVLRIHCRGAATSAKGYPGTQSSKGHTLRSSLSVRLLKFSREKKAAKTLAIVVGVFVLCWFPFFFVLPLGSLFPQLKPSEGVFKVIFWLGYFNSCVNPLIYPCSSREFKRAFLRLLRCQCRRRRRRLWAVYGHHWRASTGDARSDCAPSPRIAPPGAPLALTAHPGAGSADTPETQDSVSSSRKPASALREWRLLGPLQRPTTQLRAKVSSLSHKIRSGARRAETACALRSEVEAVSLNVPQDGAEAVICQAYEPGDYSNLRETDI
T2 sequence (P43140 whole entry): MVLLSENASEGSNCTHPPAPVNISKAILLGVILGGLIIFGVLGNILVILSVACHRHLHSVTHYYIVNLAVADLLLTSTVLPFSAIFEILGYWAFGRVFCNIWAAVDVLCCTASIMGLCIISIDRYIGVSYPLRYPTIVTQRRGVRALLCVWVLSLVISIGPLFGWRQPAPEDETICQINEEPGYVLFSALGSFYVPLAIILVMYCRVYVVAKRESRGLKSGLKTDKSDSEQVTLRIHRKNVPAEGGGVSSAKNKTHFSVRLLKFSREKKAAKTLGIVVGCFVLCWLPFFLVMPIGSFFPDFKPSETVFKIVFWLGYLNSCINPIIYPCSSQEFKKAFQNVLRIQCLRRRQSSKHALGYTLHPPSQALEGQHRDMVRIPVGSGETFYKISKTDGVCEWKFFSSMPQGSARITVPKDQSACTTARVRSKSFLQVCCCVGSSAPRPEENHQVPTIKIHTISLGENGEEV

[4] = The binding affinity at the Histamine H1 receptor determined using [3H]pyrilamine; parameters: species or system Cavia porcellus
[5] = molecular target: T3, 5-hydroxytryptamine receptor 2C (Rattus norvegicus, UniProt P08909); assay: The binding affinity at 5-hydroxytryptamine 2C receptor was determined using [3H]mesulergine
T3 sequence (P08909 whole entry): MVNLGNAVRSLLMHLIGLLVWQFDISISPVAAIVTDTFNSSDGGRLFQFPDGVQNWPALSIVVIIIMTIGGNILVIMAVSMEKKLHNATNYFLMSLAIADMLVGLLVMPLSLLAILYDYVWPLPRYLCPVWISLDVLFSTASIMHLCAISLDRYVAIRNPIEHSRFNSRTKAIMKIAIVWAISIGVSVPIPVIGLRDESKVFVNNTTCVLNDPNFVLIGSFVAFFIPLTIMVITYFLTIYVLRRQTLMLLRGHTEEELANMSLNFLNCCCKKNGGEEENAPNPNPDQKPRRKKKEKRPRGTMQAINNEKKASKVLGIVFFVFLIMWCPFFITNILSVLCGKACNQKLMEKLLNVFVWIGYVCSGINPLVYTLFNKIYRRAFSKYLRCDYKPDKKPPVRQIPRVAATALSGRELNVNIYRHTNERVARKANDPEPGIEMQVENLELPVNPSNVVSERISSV

[6] = molecular target: Norepinephrine transporter (Rattus norvegicus, UniProt Q9WTR4); assay: The binding affinity at the Norepinephrine transporter reuptake sites determined using competition binding assay
Rattus norvegicus [7] = assay: The increase in the extracellular levels of DOPAC in the rat ventral hippocampus at a dose of 5.0 mg/kg sc measured by in vivo microdialysis; format: functional; conditions: route subcutaneous
D(4) dopamine receptor = molecular target: T4, D(4) dopamine receptor (Homo sapiens, UniProt P21917); assay: The binding affinity at the Dopamine receptor D4 determined using [3H]YM-09151-2
T4 sequence (P21917 whole entry): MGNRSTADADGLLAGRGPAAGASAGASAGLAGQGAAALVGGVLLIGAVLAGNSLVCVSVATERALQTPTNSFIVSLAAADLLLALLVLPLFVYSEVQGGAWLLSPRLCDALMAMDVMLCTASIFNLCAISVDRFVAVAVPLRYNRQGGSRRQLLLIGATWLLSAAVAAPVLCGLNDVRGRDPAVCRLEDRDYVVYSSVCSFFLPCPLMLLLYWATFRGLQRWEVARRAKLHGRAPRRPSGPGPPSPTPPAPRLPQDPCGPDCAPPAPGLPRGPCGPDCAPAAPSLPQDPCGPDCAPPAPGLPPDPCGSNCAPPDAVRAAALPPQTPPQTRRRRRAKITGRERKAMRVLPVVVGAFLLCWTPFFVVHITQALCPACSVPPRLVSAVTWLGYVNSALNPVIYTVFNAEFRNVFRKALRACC

Rattus norvegicus [8] = assay: The increase in the extracellular levels of 5-HT in the rat ventral hippocampus at a dose of 5.0 mg/kg sc measured by in vivo microdialysis; format: functional; conditions: route subcutaneous
[9] = molecular target: Sodium-dependent serotonin transporter (Rattus norvegicus, UniProt P31652); assay: The binding affinity at the 5-HT reuptake sites determined using competition binding assay
Sodium-dependent serotonin transporter, sequence (P31652 whole entry): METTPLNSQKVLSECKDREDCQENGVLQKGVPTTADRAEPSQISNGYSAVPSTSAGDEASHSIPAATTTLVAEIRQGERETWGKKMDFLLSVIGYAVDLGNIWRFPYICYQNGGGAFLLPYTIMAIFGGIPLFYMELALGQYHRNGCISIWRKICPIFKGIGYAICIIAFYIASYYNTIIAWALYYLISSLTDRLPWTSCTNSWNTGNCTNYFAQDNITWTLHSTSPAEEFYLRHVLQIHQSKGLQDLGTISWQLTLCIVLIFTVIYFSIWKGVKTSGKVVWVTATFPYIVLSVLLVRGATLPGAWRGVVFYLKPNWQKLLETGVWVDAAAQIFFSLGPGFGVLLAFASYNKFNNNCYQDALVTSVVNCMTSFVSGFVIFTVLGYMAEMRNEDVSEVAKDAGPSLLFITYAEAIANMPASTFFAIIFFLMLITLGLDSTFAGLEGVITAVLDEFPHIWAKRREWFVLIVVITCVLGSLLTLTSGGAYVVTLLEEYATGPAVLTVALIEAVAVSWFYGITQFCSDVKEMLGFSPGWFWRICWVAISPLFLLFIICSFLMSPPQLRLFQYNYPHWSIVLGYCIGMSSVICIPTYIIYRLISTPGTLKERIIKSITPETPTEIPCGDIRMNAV

Norepinephrine transporter, sequence (Q9WTR4 whole entry): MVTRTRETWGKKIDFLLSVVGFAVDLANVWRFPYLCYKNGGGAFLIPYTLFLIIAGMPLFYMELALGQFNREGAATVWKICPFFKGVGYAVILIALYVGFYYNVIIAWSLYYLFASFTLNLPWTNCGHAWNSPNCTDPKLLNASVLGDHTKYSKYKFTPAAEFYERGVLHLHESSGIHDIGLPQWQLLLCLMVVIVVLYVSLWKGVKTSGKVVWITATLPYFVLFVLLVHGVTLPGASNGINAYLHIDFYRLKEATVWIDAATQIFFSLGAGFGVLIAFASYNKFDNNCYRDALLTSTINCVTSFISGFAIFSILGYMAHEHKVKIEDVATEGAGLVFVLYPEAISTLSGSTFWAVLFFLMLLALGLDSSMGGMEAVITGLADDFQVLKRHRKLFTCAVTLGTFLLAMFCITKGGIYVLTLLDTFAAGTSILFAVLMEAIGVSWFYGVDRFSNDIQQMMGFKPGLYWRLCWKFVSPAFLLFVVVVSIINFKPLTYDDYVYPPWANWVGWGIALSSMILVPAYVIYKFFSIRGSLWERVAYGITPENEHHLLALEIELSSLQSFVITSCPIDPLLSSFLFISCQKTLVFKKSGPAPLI
5-hydroxytryptamine receptor 2A, sequence (P14842 whole entry): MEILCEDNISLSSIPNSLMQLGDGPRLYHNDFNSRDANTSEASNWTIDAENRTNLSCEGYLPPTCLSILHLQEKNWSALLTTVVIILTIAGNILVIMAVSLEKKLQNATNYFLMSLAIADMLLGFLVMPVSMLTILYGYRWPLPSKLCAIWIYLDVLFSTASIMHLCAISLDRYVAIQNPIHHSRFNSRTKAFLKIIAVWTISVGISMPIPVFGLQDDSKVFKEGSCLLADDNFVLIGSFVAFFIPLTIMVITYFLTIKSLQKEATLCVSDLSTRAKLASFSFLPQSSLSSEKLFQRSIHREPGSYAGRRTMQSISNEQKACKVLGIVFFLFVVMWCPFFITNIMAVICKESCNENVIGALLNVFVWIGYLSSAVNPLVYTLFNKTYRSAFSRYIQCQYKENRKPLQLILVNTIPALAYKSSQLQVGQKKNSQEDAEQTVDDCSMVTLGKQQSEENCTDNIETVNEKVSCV

Row | Structure (SMILES) | IC50 [1] | IC50 [2] | Ki [3] | Ki [4] | Ki [5] | IC50 [6] | Increase (Rattus norvegicus [7]) | Ki (D(4) dopamine receptor) | Increase (Rattus norvegicus [8]) | IC50 [9]
1 | CN1CCN2c3c(cccc3OS(=O)(=O)C(F)(F)F)Cc3ccccc3C2C1 (racemic) | 277 nM | 1000 nM | – | – | – | – | – | – | – | –
2 | CN1CCN2c3c(O)cccc3Cc3ccccc3C2C1 (racemic) | 12 nM | 1000 nM | 1000 nM | 21 nM | 2 nM | – | – | – | – | –
3 | CN1CCN2c3ccccc3Cc3ccccc3C2C1 (racemic) [MIANSERIN] | – | – | – | 4.2 nM | – | 22 nM | 160% | – | – | –
4 | CN1CCN2c3ncccc3Cc3ccccc3C2C1 (racemic) [MIRTAZAPINE] | – | – | 1050 nM | 5.1 nM | 5.5 nM | 260 nM | 200% | > 25 nM | 180% | > 100 nM
